Measurements taken from ChEMBL document CHEMBL5728233, “PSMA imaging agents” (2021).

Molecular target: Glutamate carboxypeptidase 2 (Homo sapiens, UniProt Q04609)
Experiment: Enzymatic Assay for In Vitro Evaluation of PSMA Inhibitors: The inhibitory activity of all compounds was determined using a fluorescent assay of human PSMA activity. The enzyme used in the assay was purchased from R&D Systems and stored at −80° C. The PSMA activity was assayed in a two-step process. In the first step, aliquots of enzyme (0.2 μg/mL) were incubated for 1 h at 37° C. in 50 mM HEPES, 0.1 M NaCl, pH 7.5, in the presence of 20 μM NAAG and the given inhibitor, in a volume of 250 μL, to allow for the accumulation of glutamate produced in the PSMA reaction. In the second step, the amount of accumulated glutamate was measured using the OPA reaction, and the fluorescence was read with a SpectraMax fluorescent plate reader using excitation at 330 nm and emission at 450 nm. The final Ki values for each inhibitor were calculated from the respective IC50 values using the Cheng and Prusoff equation.

Chain of Glutamate carboxypeptidase 2 (Q04609 whole entry): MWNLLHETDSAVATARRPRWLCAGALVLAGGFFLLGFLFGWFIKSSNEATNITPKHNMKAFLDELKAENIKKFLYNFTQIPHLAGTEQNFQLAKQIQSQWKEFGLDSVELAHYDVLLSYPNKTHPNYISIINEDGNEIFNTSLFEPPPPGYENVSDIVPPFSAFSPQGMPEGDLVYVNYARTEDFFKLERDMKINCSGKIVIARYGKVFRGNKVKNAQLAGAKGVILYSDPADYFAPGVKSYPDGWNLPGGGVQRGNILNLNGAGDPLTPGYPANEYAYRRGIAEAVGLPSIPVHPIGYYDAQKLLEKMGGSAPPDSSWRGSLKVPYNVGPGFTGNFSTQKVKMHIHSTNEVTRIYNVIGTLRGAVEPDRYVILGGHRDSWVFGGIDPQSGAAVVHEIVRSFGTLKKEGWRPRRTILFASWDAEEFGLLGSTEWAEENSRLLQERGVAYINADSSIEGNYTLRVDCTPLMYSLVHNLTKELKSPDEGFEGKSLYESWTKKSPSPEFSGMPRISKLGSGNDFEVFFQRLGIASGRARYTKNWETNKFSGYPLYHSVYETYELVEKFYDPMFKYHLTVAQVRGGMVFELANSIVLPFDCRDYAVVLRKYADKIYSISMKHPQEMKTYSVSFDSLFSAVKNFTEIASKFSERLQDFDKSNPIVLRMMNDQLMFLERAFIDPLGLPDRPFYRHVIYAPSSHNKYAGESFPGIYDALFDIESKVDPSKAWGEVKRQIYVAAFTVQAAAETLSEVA

Ki: 625 nM
SMILES: CN(C(=O)N[C@@H](CCC(=O)O)C(=O)O)[C@@H](CCCCNC(=O)CCCCCn1cc(CCCF)nn1)C(=O)O
